Measurements as given in patent publication US8663646B2, “P53 peptide vaccine” (priority 2007, dated 2014).

Legend:
[1] = target: T1, 20S immuno-proteasomes from mouse B-cell line (RMA) (Mus musculus, UniProt O35955+P28063+P28076); assay: In vitro proteasome mediated digestion of 30-mers, mass spectrometry, immunoproteasome RMA; type: biochemical; conditions: 30 residue long precursor peptides
T1 construct: 20S immuno-proteasomes were purified from a mouse B-cell line (RMA); endogenous in cells; host or cells: RMA cells; 20S proteasome purified from them
Method: (§1) In the context of the invention, “being inefficiently processed by a proteasome” preferably means that within the first hour of digestion by a proteasome less than 1% of total digested peptide is found. The processing by a proteasome is preferably assessed by incubating a purified proteasome, more preferably a human proteasome with a peptide comprising the potential CTL epitope (30 amino acid length approximately) in a proteasome digestion buffer during at least one hour at 37° C. The reaction is subsequently stopped by adding trifluoroacetic acid. Analysis of the digested peptides is performed with electrospray ionization mass spectrometry (see example 1). Even more preferably, the human proteasome is an immunoproteasome from B-LCL JY cells (Kessler J H et al. 2001).
(§2) 20S immuno-proteasomes were purified from a mouse B-cell line (RMA) and a human B-LCL cell line (JY) and 20S household proteasomes were purified from human tumor cell line (HeLa) as described (Kessler J H et al 2001). To assess kinetics, digestions were performed with different incubation periods as indicated. Briefly, peptides containing the (potential) CTL epitopes (30 mers, 20 μg) were incubated with 1 μg of purified proteasome at 37° C. for 1 h, 4 h and 24 h in 300 μl proteasome digestion buffer, trifluoroacetic acid (30 μl) was added to stop the digestion and samples were stored at −20° C. before mass spectrometric analysis. Electrospray ionization mass spectrometry was performed on a hybrid quadrupole time-of-flight mass spectromter, a Q-TOF (Micromass), equipped with an on-line nanoelectrospray interface with an approximate flow rate of […] as described (Kessler J H et al 2001). The peaks in the mass spectrum were searched in the digested precursor peptide using the Biolynx/proteins software (Micromass) supplied with the mass spectrometer. The intensity of the peaks in the mass spectra was used to establish the relative amounts of peptides generated after proteasome digestion. The relative amounts of the peptides are given as a percentage of the total amount of peptide digested by the proteasome at the indicated incubation time. Major cleavage sites are defined as more than >1% of total digested peptide within the first hour.

HLA-A*2401 [2] = assay: Stability of peptide-HLA complex, binding at 4° C. and 20° C., HLA-A*2401; parameters: species or system human; conditions: for Peptide Binding Stability: HLA-A*2401, IC50 at 20° C. vs 4° C.
Method: Stability of other peptide-HLA complexes was preferably determined as follows. […] Peptides of >50% of the initial complexes was lost within 2 hours were considered unstable. […] The rest was designated as unstable peptide binding.
Peptides 8-11 residues in length were selected based on typical anchor residues for HLA-A*0101, A*0301, A*1101 and HLA-A*2401 (Rammensee H G et al). The capacity of peptides to bind was tested in a competition based cellular binding assay as previously described (van der Burg S H et al 1995). FL-labeled reference peptides were synthesized as Cys-derivative (van der Burg S H et al 1995). Fluorescence labeled reference peptides used were: YLEPAC(FL)AK (SEQ ID NO: 87) (HLA-A*0101) and KVFPC(FL)ALINK (SEQ ID NO: 88) (HLA-A*1101) (Sette A et al), KVFPC(FL)ALINK (SEQ ID NO: 89) (HLAA*0301) (van der Burg S H et al 1995) and RYLKC(FL)QQLL (SEQ ID NO: 90) (A*2401) (Dai L C et al). B-cell lines used are: CAA (A*0101), EKR (A*0301), BVR (A*1101), VIJF (A*2401). The relative binding capacity of the peptides is expressed as the peptide concentration to inhibit 50% (1050) of the binding of the reference peptide. […] Peptide stabilization for HLA-A*0201 was performed as previously described (van der Burg S H et al, 1996). Peptides of >50% of the initial complexes was lost within 2 hours were considered unstable. Stability of other peptide-HLA complexes was determined as follows. Peptide binding was performed at 4° C. and 20° C. and 1050 were determined. […] The rest was designated as unstable peptide binding.

[3] = target: T2, 20S household proteasomes from human tumor cell line (HeLa) (Homo sapiens, UniProt P28072+P28074+Q99436); assay: In vitro proteasome mediated digestion of 30-mers, mass spectrometry, household proteasome HeLa; type: biochemical; conditions: 30 residue long precursor peptides
T2 construct: 20S household proteasomes were purified from human tumor cell line (HeLa); endogenous in cells; host or cells: HeLa cells; 20S proteasome purified from them
Method: as §1, §2

HLA-A*2401 [4] = assay: Competition based cellular binding assay, HLA-A*2401 (B-cell line VIJF); parameters: species or system human; conditions: for Peptide Binding Affinity: HLA-A*2401, IC50 category
[5] = target: T3, 20S immuno-proteasomes from human B-LCL cell line (JY) (Homo sapiens, UniProt P28062+P28065+P40306); assay: In vitro proteasome mediated digestion of 30-mers, mass spectrometry, immunoproteasome JY; type: biochemical; conditions: 30 residue long precursor peptides
T3 construct: purified from a mouse B-cell line (RMA) and a human B-LCL cell line (JY); endogenous in cells; host or cells: B-LCL JY cells; 20S proteasome purified from them
Method: as §1, §2

HLA-A*0201 = HLA-A*0201 (Homo sapiens, UniProt P04439, D140Y/D185E/D98H/E176V/E277Q/G131W/G231S/I119V/I121R/I166T/I218V/L300P/L318F/N151K/N90K/P208A/P217A/Q86G/Q94H/R138H/R169H/T345S); assay: Peptide stabilization for HLA-A*0201; type: binding
HLA-A*0301 = target: T4, HLA-A*0301 (Homo sapiens, UniProt P04439); assay: Stability of peptide-HLA complex, binding at 4° C. and 20° C., HLA-A*0301
T4 construct: B-cell lines used are: CAA (A*0101), EKR (A*0301), BVR (A*1101), VIJF (A*2401); endogenous in cells; host or cells: B-cell line EKR
Summary of the method: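 Competition binding used B-cell lines CAA (A*0101), EKR (A*0301), BVR (A*1101) and VIJF (A*2401) against fluorescein-labelled reference peptides. IC50 is the peptide concentration inhibiting 50% of reference binding. Binding was run at 4 °C and 20 °C with IC50 determined at each; complexes losing >50% within 2 hours were deemed unstable.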

HLA-A*0101 = target: T5, HLA-A*0101 (Homo sapiens, UniProt P04439, A114D/A174V/A182V/D101N/D185E/E176A/E190D/L180R/Q94H/R68K/S129P/T187R/V100A/V91M/W191G); assay: Stability of peptide-HLA complex, binding at 4° C. and 20° C., HLA-A*0101; conditions: for HLA binding Stability (Table 5): HLA type A1; for Peptide Binding Stability: HLA-A*0101, IC50 at 20° C. vs 4° C.
T5 construct: B-cell lines used are: CAA (A*0101), EKR (A*0301), BVR (A*1101), VIJF (A*2401); endogenous in cells; host or cells: B-cell line CAA

`CC(C)C[C@H](NC(=O)[C@H](CC(C)C)NC(=O)[C@H](CCCCN)NC(=O)[C@H](Cc1c[nH]c2ccccc12)NC(=O)[C@H](CC(C)C)NC(=O)[C@H](CC(=O)O)NC(=O)[C@H](CO)NC(=O)[C@H](Cc1ccccc1)NC(=O)[C@@H](N)[C@@H](C)O)C(=O)O` [p53 18-26] was tested, and the “Proteasomal Cleavage of C-terminus, IP (RMA)” value [1] was “+ (Major cleavage sites are defined as more than >1% of total digested peptide within the first hour)”, the “Peptide Binding Stability” value (HLA-A*2401 [2]) was “+ (Stable peptides displayed IC50 at 20 °C that deviated <2 times of the IC50 at 4° C.)” and the “Proteasomal Cleavage of C-terminus, HH (HeLa)” value [3] was “+ (Major cleavage sites are defined as more than >1% of total digested peptide within the first hour)”. The “Peptide Binding Affinity” value (HLA-A*2401 [4]) was “high” and the “Proteasomal Cleavage of C-terminus, IP (JY)” value [5] was “+ (Major cleavage sites are defined as more than >1% of total digested peptide within the first hour)”.
With `CC(C)C[C@H](NC(=O)[C@H](CCCNC(=N)N)NC(=O)[C@H](Cc1ccccc1)NC(=O)CNC(=O)[C@H](Cc1ccc(O)cc1)NC(=O)[C@H](CO)NC(=O)CNC(=O)[C@H](CCC(N)=O)NC(=O)[C@H](Cc1ccc(O)cc1)NC(=O)[C@@H](N)[C@@H](C)O)C(=O)O` [p53 102-111] the “Proteasomal Cleavage of C-terminus, IP (RMA)” value [1] was “+ (Major cleavage sites are defined as more than >1% of total digested peptide within the first hour)”, the “Peptide Binding Stability” value (HLA-A*2401 [2]) was “+ (Stable peptides displayed IC50 at 20 °C that deviated <2 times of the IC50 at 4° C.)” and the “Proteasomal Cleavage of C-terminus, HH (HeLa)” value [3] was “+ (Major cleavage sites are defined as more than >1% of total digested peptide within the first hour)”. For the same compound, the “Peptide Binding Affinity” value (HLA-A*2401 [4]) was “high” and the “Proteasomal Cleavage of C-terminus, IP (JY)” value [5] was “+ (Major cleavage sites are defined as more than >1% of total digested peptide within the first hour)”.
In the case of `CC(C)C[C@H](NC(=O)[C@H](CCCNC(=N)N)NC(=O)[C@H](Cc1ccccc1)NC(=O)CNC(=O)[C@H](Cc1ccc(O)cc1)NC(=O)[C@@H](N)CO)C(=O)NCC(=O)N[C@@H](Cc1ccccc1)C(=O)O` [p53 106-113], the “Proteasomal Cleavage of C-terminus, IP (RMA)” value [1] is reported as “+ (Major cleavage sites are defined as more than >1% of total digested peptide within the first hour)”, the “Peptide Binding Stability” value (HLA-A*2401 [2]) is reported as “+ (Stable peptides displayed IC50 at 20 °C that deviated <2 times of the IC50 at 4° C.)” and the “Proteasomal Cleavage of C-terminus, HH (HeLa)” value [3] is reported as “+ (Major cleavage sites are defined as more than >1% of total digested peptide within the first hour)”. For the same compound, the “Peptide Binding Affinity” value (HLA-A*2401 [4]) was “high” and the “Proteasomal Cleavage of C-terminus, IP (JY)” value [5] was “+ (Major cleavage sites are defined as more than >1% of total digested peptide within the first hour)”.
In the case of `CC(C)C[C@H](NC(=O)[C@H](Cc1ccccc1)NC(=O)CNC(=O)[C@H](CC(C)C)NC(=O)[C@H](CCCNC(=N)N)NC(=O)[C@H](Cc1ccccc1)NC(=O)CNC(=O)[C@H](Cc1ccc(O)cc1)NC(=O)[C@@H](N)CO)C(=O)O` [p53 106-114], the “Proteasomal Cleavage of C-terminus, IP (RMA)” value [1] is reported as “+ (Major cleavage sites are defined as more than >1% of total digested peptide within the first hour)”, the “HLA binding Stability (Table 5)” value (HLA-A*2401 [2]; HLA type A24) is reported as “+/− (Peptides that displayed IC50 at 20 °C of more than twice the IC50 at 4 °C but IC50 < 15 μM were considered to bind with intermediate stability.)” and the “Peptide Binding Stability” value (HLA-A*2401 [2]) is reported as “+/− (Peptides that displayed IC50 at 20 °C of more than twice the IC50 at 4 °C but IC50 < 15 μM were considered to bind with intermediate stability.)”. For the same compound, the “Proteasomal Cleavage of C-terminus, HH (HeLa)” value [3] was “+ (Major cleavage sites are defined as more than >1% of total digested peptide within the first hour)”, the “HLA binding Affinity (Table 5)” value (HLA-A*2401 [4]; HLA type A24) was “high” and the “Peptide Binding Affinity” value (HLA-A*2401 [4]) was “high”. The “Proteasomal Cleavage of C-terminus, IP (JY)” value [5] was “+ (Major cleavage sites are defined as more than >1% of total digested peptide within the first hour)”.
With `CC(C)C[C@H](NC(=O)[C@@H](N)Cc1ccccc1)C(=O)N[C@@H](Cc1c[nH]cn1)C(=O)N[C@@H](CO)C(=O)NCC(=O)N[C@H](C(=O)N[C@@H](C)C(=O)N[C@@H](CCCCN)C(=O)N[C@@H](CO)C(=O)N[C@H](C(=O)O)C(C)C)[C@@H](C)O` [p53 113-122] the “Proteasomal Cleavage of C-terminus, IP (RMA)” value [1] was “+ (Major cleavage sites are defined as more than >1% of total digested peptide within the first hour)”, the “Proteasomal Cleavage of C-terminus, HH (HeLa)” value [3] was “+ (Major cleavage sites are defined as more than >1% of total digested peptide within the first hour)” and the “HLA binding Stability (Table 5)” value (HLA-A*0201; HLA type A2, value in hours) was 6 h. The “Peptide Binding Stability” value (HLA-A*0201; HLA-A*0201, p53 peptides) was 6 h and the “Proteasomal Cleavage of C-terminus, IP (JY)” value [5] was “+ (Major cleavage sites are defined as more than >1% of total digested peptide within the first hour)”.
With `CC(C)[C@H](NC(=O)[C@H](CO)NC(=O)[C@H](CCCCN)NC(=O)[C@H](C)NC(=O)[C@@H](NC(=O)CN)[C@@H](C)O)C(=O)N[C@H](C(=O)N[C@@H](CS)C(=O)N[C@H](C(=O)N[C@@H](Cc1ccc(O)cc1)C(=O)O)[C@@H](C)O)[C@@H](C)O` [p53 117-126] the “HLA binding Stability (Table 5)” value (HLA-A*0301; HLA type A3) was “− (The rest was designated as unstable peptide binding.)”, the “Peptide Binding Stability” value (HLA-A*0301; HLA-A*0301, IC50 at 20° C. vs 4° C.) was “− (The rest was designated as unstable peptide binding.)” and the “HLA binding Stability (Table 5)” value (HLA-A*0101) was “+ (Stable peptides displayed IC50 at 20 °C that deviated <2 times of the IC50 at 4° C.)”. For the same compound, the “Peptide Binding Stability” value (HLA-A*0101) was “+ (Stable peptides displayed IC50 at 20 °C that deviated <2 times of the IC50 at 4° C.)”.
In the case of `CC(C)C[C@H](NC(=O)[C@H](CC(N)=O)NC(=O)CNC(=O)[C@H](CCC(=O)O)NC(=O)[C@@H](NC(=O)[C@@H](N)CCCNC(=N)N)C(C)C)C(=O)N[C@@H](CCCNC(=N)N)C(=O)N[C@H](C(=O)N[C@@H](CCC(=O)O)C(=O)N[C@@H](Cc1ccc(O)cc1)C(=O)O)C(C)C` [p53 196-205], the “HLA binding Stability (Table 5)” value (HLA-A*0101) is reported as “+ (Stable peptides displayed IC50 at 20 °C that deviated <2 times of the IC50 at 4° C.)” and the “Peptide Binding Stability” value (HLA-A*0101) is reported as “+ (Stable peptides displayed IC50 at 20 °C that deviated <2 times of the IC50 at 4° C.)”.
